These results are taken from patent US11858938B2, “Imidazo-fused heterocycles and uses thereof” (Ligand Pharmaceuticals Incorporated, priority 2015, dated 2024).

The experiment addresses T1, Recombinant human FLT3 (Homo sapiens, UniProt P36888).
T1 construct: His6 (C)
T1 sequence (P36888 27-993): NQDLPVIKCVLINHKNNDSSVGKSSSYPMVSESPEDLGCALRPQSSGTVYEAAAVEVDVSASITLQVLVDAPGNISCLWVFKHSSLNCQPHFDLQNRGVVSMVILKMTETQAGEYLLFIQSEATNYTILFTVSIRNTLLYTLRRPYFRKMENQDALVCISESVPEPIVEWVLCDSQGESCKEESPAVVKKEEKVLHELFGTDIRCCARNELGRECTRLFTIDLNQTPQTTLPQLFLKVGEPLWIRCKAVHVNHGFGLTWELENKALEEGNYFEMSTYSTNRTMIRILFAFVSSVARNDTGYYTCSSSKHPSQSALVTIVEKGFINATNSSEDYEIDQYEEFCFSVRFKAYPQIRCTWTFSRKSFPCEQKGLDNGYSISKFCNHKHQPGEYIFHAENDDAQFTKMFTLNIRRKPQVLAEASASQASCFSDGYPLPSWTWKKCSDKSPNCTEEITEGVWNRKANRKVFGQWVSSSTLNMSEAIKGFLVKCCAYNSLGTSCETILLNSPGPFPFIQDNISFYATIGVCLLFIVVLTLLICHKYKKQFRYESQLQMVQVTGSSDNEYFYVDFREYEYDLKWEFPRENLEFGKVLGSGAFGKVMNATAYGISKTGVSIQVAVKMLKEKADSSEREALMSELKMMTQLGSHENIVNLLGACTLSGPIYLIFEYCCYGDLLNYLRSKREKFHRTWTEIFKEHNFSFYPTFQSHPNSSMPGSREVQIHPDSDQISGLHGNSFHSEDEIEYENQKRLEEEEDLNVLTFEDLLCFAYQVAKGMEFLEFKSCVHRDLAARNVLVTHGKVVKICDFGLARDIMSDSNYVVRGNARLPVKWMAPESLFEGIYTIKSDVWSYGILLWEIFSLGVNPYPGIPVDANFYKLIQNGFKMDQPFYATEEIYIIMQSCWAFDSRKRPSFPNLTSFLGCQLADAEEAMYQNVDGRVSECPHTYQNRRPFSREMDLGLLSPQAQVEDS
Put plainly: Flt3 kinase inhibitory assay (radioisotope filtration binding, 33P-ATP). As to conditions: read-out: Flt3 inhibition IC50. The experiment is classed as biochemical. As to the method:
The assay is performed using traditional radioisotope filtration binding.
A base reaction buffer is prepared consisting of 20 mM Hepes (pH 7.5), 10 mM MgCl2, 1 mM EGTA, 0.02% Brij35, 0.02 mg/ml BSA, 0.1 mM […], 2 mM DTT, 1% DMSO. The peptide substrate abltide [[…]] is added to the base reaction buffer to yield a final concentration of 5 μM. Additional cofactors (1.5 mM CaCl2, 16 ug/ml Calmodulin, and 2 mM MnCl2) are added to the buffer/substrate solution. Recombinant human FLT3 (baculovirus expression system using a C-terminal His6-tag) is added to the solution and gently mixed. Test compounds are dissolved in DMSO and added to the buffer/kinase solution to yield a final concentration of 5 μM. […] The reaction is initiated by the addition of ^33P-ATP (specific activity […]) into the reaction mixture to a final concentration of 10 μM. The kinase reaction was incubated for 120 minutes at room temperature. The reactions are spotted onto P81 ion exchange paper (Whatman #3698-915) and the filter papers are extensively washed in 0.75% Phosphoric acid and beta emissions are measured.

One may read the pIC50 as −log10 of the IC50, conventionally taken in molar units.

pIC50: −log10 of the molar value.

On to `c1cc(-c2cn3cc(Nc4cc(CN5CCCC5)ccn4)nc3cn2)ccn1` [Compound 101], for which the pIC50 is 9.96.

As for `c1cc(-c2ccc3nc(Nc4cc(CN5CCCC5)ccn4)cn3n2)ccn1` [Compound 102], the pIC50 is 9.60.
